Test system: HEK293T cells carrying the ATF4 luciferase reporter
Experiment: ATF4-Luc assay, in vitro model of Vanishing Cell White Matter Disease (VWMD)
Type: cell-based
Conditions: Homo sapiens, HEK-293T, 1 μg/mL tunicamycin, 7 hours, One Glo luminescence
Method in brief: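 Reporter cells were stably generated by retroviral transduction and puromycin selection, then seeded at 30,000 cells/well. Next day, cells received 1 μg/mL tunicamycin with 200 nM test compound for 7 h, and luciferase luminescence was read with a one-step reagent. Values reported as EC50.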

For `O=C(COc1ccc(Cl)c(F)c1)NC12CC(NC(=O)c3cnsn3)(C1)C2` [Compound 895, N-{3-[2-(4-chloro-3-fluorophenoxy)acetamido]bicyclo[1.1.1]pentan-1-yl}-1,2,5-thiadiazole-3-carboxamide], the EC50 was 250 to 1000 nM.

Work on `CN(C)c1ccc(C(=O)NC23CC(NC(=O)COc4ccc(Cl)c(F)c4)(C2)C3)cc1` [Compound 536, N-{3-[2-(4-chloro-3-fluorophenoxy)acetamido]bicyclo[1.1.1]pentan-1-yl}-4-(dimethylamino)benzamide] yielded an EC50 of 250 to 1000 nM.

With `O=C(COc1ccc(Cl)c(F)c1)NC12CC(NC(=O)c3ccn[nH]3)(C1)C2` [Compound 320, N-{3-[2-(4-chloro-3-fluorophenoxy)acetamido]bicyclo[1.1.1]pentan-1-yl}-1H-pyrazole-5-carboxamide] the EC50 was 1000 to 2000 nM.

`O=C(COc1ccc(Cl)c(F)c1)NC12CCC(NC(=O)c3cscn3)(CC1)CC2O` (stereo not drawn) [Compound 592, N-{4-[2-(4-chloro-3-fluorophenoxy)acetamido]-3-hydroxybicyclo[2.2.2]octan-1-yl}-1,3-thiazole-4-carboxamide] was tested, and the EC50 was 50 to 250 nM.

`CCc1cnc(C(=O)NC23CCC(NC(=O)COc4ccc(Cl)c(F)c4)(C2)C3)cn1` [Compound 712, N-{4-[2-(4-chloro-3-fluorophenoxy)acetamido]bicyclo[2.1.1]hexan-1-yl}-5-ethylpyrazine-2-carboxamide] gave an EC50 of 250 to 1000 nM.

For `O=C(COc1ccc(Cl)c(F)c1)NC12CC(Nc3cnc(C(F)F)cn3)(C1)C2` [Compound 649, 2-(4-chloro-3-fluorophenoxy)-N-(3-{[5-(difluoromethyl)pyrazin-2-yl]amino}bicyclo[1.1.1]pentan-1-yl)acetamide], the EC50 was 1000 to 2000 nM.

Compound `CSc1ncccc1C(=O)NC12CC(NC(=O)COc3ccc(Cl)c(F)c3)(C1)C2` [Compound 828, N-{3-[2-(4-chloro-3-fluorophenoxy)acetamido]bicyclo[1.1.1]pentan-1-yl}-2-(methylsulfanyl)pyridine-3-carboxamide] has an EC50 of over 2000 nM.

`Cc1c(-c2cc(C(=O)NC34CC(NC(=O)COc5ccc(Cl)c(F)c5)(C3)C4)no2)cnn1C` [Compound 840, N-{3-[2-(4-chloro-3-fluorophenoxy)acetamido]bicyclo[1.1.1]pentan-1-yl}-5-(1,5-dimethyl-1H-pyrazol-4-yl)-1,2-oxazole-3-carboxamide] gave an EC50 of 1000 to 2000 nM.

`O=C(COc1ccc(Cl)c(F)c1)NC12CC(NC(=O)c3cnc(C4=CCOCC4)o3)(C1)C2` [Compound 138, N-{3-[2-(4-chloro-3-fluorophenoxy)acetamido]bicyclo[1.1.1]pentan-1-yl}-2-(3,6-dihydro-2H-pyran-4-yl)-1,3-oxazole-5-carboxamide] gave an EC50 of 50 to 250 nM.

For `O=C(COc1ccc(Cl)c(F)c1)NC12CCC(NC(=O)c3cc(C4CC4)no3)(CC1)C(O)C2` (stereo not drawn) [Compound 331, N-{4-[2-(4-chloro-3-fluorophenoxy)acetamido]-2-hydroxybicyclo[2.2.2]octan-1-yl}-3-cyclopropyl-1,2-oxazole-5-carboxamide], the EC50 was 250 to 1000 nM.

`Cc1cnc2c(C(=O)NC34CC(NC(=O)COc5ccc(Cl)c(F)c5)(C3)C4)cnn2c1` [Compound 806, N-{3-[2-(4-chloro-3-fluorophenoxy)acetamido]bicyclo[1.1.1]pentan-1-yl}-6-methylpyrazolo[1,5-a]pyrimidine-3-carboxamide] showed an EC50 of over 2000 nM.

`O=C(COc1ccc(Cl)c(Cl)c1)NC12CC(NC(=O)c3cnc4ccccc4n3)(C1)C2` [Compound 920, N-{3-[2-(3,4-dichlorophenoxy)acetamido]bicyclo[1.1.1]pentan-1-yl}quinoxaline-2-carboxamide] was tested, and the EC50 was under 50 nM.

`O=C(COc1ccc(Cl)c(F)c1)NC12CC(NC(=O)c3cnc(C4CC4)cn3)(C1)C2` [Compound 266, N-{3-[2-(4-chloro-3-fluorophenoxy)acetamido]bicyclo[1.1.1]pentan-1-yl}-5-cyclopropylpyrazine-2-carboxamide] gave an EC50 of 50 to 250 nM.

`CC(C)(O)/C=C/c1ccnc(C(=O)NC23CC(NC(=O)COc4ccc(Cl)c(F)c4)(C2)C3)c1` [Compound 430, N-{3-[2-(4-chloro-3-fluorophenoxy)acetamido]bicyclo[1.1.1]pentan-1-yl}-4-[(1E)-3-hydroxy-3-methylbut-1-en-1-yl]pyridine-2-carboxamide] showed an EC50 of over 2000 nM.

`Cn1cc2ccnc(NC34CC(NC(=O)COc5ccc(Cl)c(F)c5)(C3)C4)c2n1` [Compound 493, 2-(4-chloro-3-fluorophenoxy)-N-{3-[(2-methyl-2H-pyrazolo[3,4-c]pyridin-7-yl)amino]bicyclo[1.1.1]pentan-1-yl}acetamide] was tested, and the EC50 was 50 to 250 nM.

`Cc1nc(C(=O)NC23CCC(NC(=O)COc4ccc(Cl)c(F)c4)(CC2)C(O)C3)cs1` (stereo not drawn) [Compound 473, N-{4-[2-(4-chloro-3-fluorophenoxy)acetamido]-3-hydroxybicyclo[2.2.2]octan-1-yl}-2-methyl-1,3-thiazole-4-carboxamide] showed an EC50 of 50 to 250 nM.

Work on `COC1CN(c2ccnc(C(=O)NC34CC(NC(=O)COc5ccc(Cl)c(F)c5)(C3)C4)c2)C1` [Compound 190, N-{3-[2-(4-chloro-3-fluorophenoxy)acetamido]bicyclo[1.1.1]pentan-1-yl}-4-(3-methoxyazetidin-1-yl)pyridine-2-carboxamide] yielded an EC50 of 250 to 1000 nM.

`Cc1nc(C)c(C(=O)NC23CC(NC(=O)COc4ccc(Cl)c(F)c4)(C2)C3)s1` [Compound 238, N-{3-[2-(4-chloro-3-fluorophenoxy)acetamido]bicyclo[1.1.1]pentan-1-yl}-2,4-dimethyl-1,3-thiazole-5-carboxamide] showed an EC50 of 50 to 250 nM.

With `O=C(COc1ccc(Cl)c(F)c1)NC12CC(Nc3cncc(N4CCOCC4)n3)(C1)C2` [Compound 744, 2-(4-chloro-3-fluorophenoxy)-N-(3-{[6-(morpholin-4-yl)pyrazin-2-yl]amino}bicyclo[1.1.1]pentan-1-yl)acetamide] the EC50 was 250 to 1000 nM.

In the case of `O=C(COc1ccc(Cl)c(F)c1)NC12CC(NC(=O)c3cncc(N4CCOCC4)n3)(C1)C2` [Compound 894, N-{3-[2-(4-chloro-3-fluorophenoxy)acetamido]bicyclo[1.1.1]pentan-1-yl}-6-(morpholin-4-yl)pyrazine-2-carboxamide], the EC50 is reported as 250 to 1000 nM.

Work on `COc1ccc(C(=O)NC23CC(NC(=O)COc4ccc(Cl)c(F)c4)(C2)C3)c(F)c1` [Compound 518, N-{3-[2-(4-chloro-3-fluorophenoxy)acetamido]bicyclo[1.1.1]pentan-1-yl}-2-fluoro-4-methoxybenzamide] yielded an EC50 of 250 to 1000 nM.

`CCc1cc(C(=O)NC23CC(NC(=O)COc4ccc(Cl)c(F)c4)(C2)C3)n(C)n1` [Compound 254, N-{3-[2-(4-chloro-3-fluorophenoxy)acetamido]bicyclo[1.1.1]pentan-1-yl}-3-ethyl-1-methyl-1H-pyrazole-5-carboxamide] was tested, and the EC50 was under 50 nM.

With `O=C(COc1ccc(Cl)c(F)c1)NC12CC(NC(=O)c3csc(C4CC4)n3)(C1)C2` [Compound 655, N-{3-[2-(4-chloro-3-fluorophenoxy)acetamido]bicyclo[1.1.1]pentan-1-yl}-2-cyclopropyl-1,3-thiazole-4-carboxamide] the EC50 was 50 to 250 nM.

Compound `O=C(COc1ccc(Cl)c(F)c1)NC12CC(NC(=O)c3csc(C(F)(F)F)n3)(C1)C2` [Compound 641, N-{3-[2-(4-chloro-3-fluorophenoxy)acetamido]bicyclo[1.1.1]pentan-1-yl}-2-(trifluoromethyl)-1,3-thiazole-4-carboxamide] has an EC50 of under 50 nM.

`O=C(COc1ccc(Cl)c(F)c1)NC12CC(NC(=O)c3csc(-c4ccccc4)n3)(C1)C2` [Compound 339, N-{3-[2-(4-chloro-3-fluorophenoxy)acetamido]bicyclo[1.1.1]pentan-1-yl}-2-phenyl-1,3-thiazole-4-carboxamide] gave an EC50 of under 50 nM.

Work on `CC(=O)Nc1ccc(C(=O)NC23CC(NC(=O)COc4ccc(Cl)c(F)c4)(C2)C3)cn1` [Compound 805, 6-acetamido-N-{3-[2-(4-chloro-3-fluorophenoxy)acetamido]bicyclo[1.1.1]pentan-1-yl}pyridine-3-carboxamide] yielded an EC50 of over 2000 nM.

With `Cc1cc(C(=O)N(C)C23CC(NC(=O)COc4ccc(Cl)c(F)c4)(C2)C3)on1` [Compound 355, N-{3-[2-(4-chloro-3-fluorophenoxy)acetamido]bicyclo[1.1.1]pentan-1-yl}-N,3-dimethyl-1,2-oxazole-5-carboxamide] the EC50 was 1000 to 2000 nM.

`CCc1nc(C(=O)NC23CC(NC(=O)COc4ccc(Cl)c(Cl)c4)(C2)C3)cs1` [Compound 698, N-{3-[2-(3,4-dichlorophenoxy)acetamido]bicyclo[1.1.1]pentan-1-yl}-2-ethyl-1,3-thiazole-4-carboxamide] was tested, and the EC50 was under 50 nM.

For `Cc1nnc(C(=O)NC23CCC(NC(=O)COc4ccc(Cl)c(F)c4)(CC2)C(O)C3)o1` (stereo not drawn) [Compound 516, N-{4-[2-(4-chloro-3-fluorophenoxy)acetamido]-3-hydroxybicyclo[2.2.2]octan-1-yl}-5-methyl-1,3,4-oxadiazole-2-carboxamide], the EC50 was 1000 to 2000 nM.

With `Cc1cc(C(=O)NC23CCC(NC(=O)COc4ccc(Cl)c(F)c4)(C2)C3)on1` [Compound 324, N-{4-[2-(4-chloro-3-fluorophenoxy)acetamido]bicyclo[2.1.1]hexan-1-yl}-3-methyl-1,2-oxazole-5-carboxamide] the EC50 was 250 to 1000 nM.

With `O=C(COc1ccc(Cl)c(F)c1)NC12CC(NC(=O)c3ccccc3-n3cncn3)(C1)C2` [Compound 862, N-{3-[2-(4-chloro-3-fluorophenoxy)acetamido]bicyclo[1.1.1]pentan-1-yl}-2-(1H-1,2,4-triazol-1-yl)benzamide] the EC50 was over 2000 nM.

`O=C(COc1ccc(Cl)c(F)c1)NC12CC(NC(=O)c3cnc4[nH]ccc4c3)(C1)C2` [Compound 746, N-{3-[2-(4-chloro-3-fluorophenoxy)acetamido]bicyclo[1.1.1]pentan-1-yl}-1H-pyrrolo[2,3-b]pyridine-5-carboxamide] showed an EC50 of 50 to 250 nM.

Work on `Cc1nc(C(=O)NC23CCC(NC(=O)COc4ccc(Cl)c(Cl)c4)(CC2)[C@@H](O)C3)n[nH]1` [Compound 702, N-{(3S)-4-[2-(3,4-dichlorophenoxy)acetamido]-3-hydroxybicyclo[2.2.2]octan-1-yl}-5-methyl-1H-1,2,4-triazole-3-carboxamide] yielded an EC50 of under 50 nM.
